Measured values: patent publication US20080021042A1, “Composition For Controlling Neuropathic Pain” (priority 2004, published 2008)

Experiments:
motor coordination = motor coordination test (mice rotating rod test, Rota-rod); assay type: in vivo, mouse; conditions: 30 mg/kg orally, 16 rpm, cut-off 60 seconds, FIG. 4
Description: The effect of the compound of Example 1 on motor coordination was evaluated by means of mice rotating rod test.
Five male BALB/c, 6-7 weeks old mice per group were used. The mouse was trained for 2 or more days so that it could remain on the Rota-rod treadmill (Ugo Basile) in 3 cm in diameter rotating at 16 rpm for at least 60 seconds when it was placed on the rod with the head directed against the direction of rotation. Before the evaluation, three trials were conducted with 10 min or more intervals and the mice which could remain on the rod more than 60 seconds in all three times were selected for the evaluation. The selected mice were divided into test groups.
The time obtained in the third trial was used as the before administration value. Mice were orally received 30 mg/kg of the compound of Example 1 or gabapentin and placed on the rotating rod. The duration of time the mouse remained on the rod was recorded. A cut-off time of 60 seconds was employed and when an animal could remain more than 60 seconds, the time was recorded as 60 seconds.

neuropathic pain = conditions: oral administration, in general; cited from earlier work

NCC1(CC(=O)O)CCCCC1 [gabapentin]
duration of time the mouse remained on the rotating rod (motor coordination): no reduction of the remaining time | onset of analgesic action (neuropathic pain): 1 to 2 h
